Source: patent US20230277630A1, “METHODS AND COMPOSITIONS FOR TREATING AMYOTROPHIC LATERAL SCLEROSIS” (Amylyx Pharmaceuticals, Inc., priority 2022, published 2023)
Several values for one entry are separate records, joined by “and”; a condition that tells them apart may be missing. Identical values can stand only once.

How the values were obtained:
MATE1 = molecular target: T1, MATE1 (Homo sapiens, UniProt Q96FL8); assay: MATE1 inhibitor (IC50) assessment, metformin uptake in transfected HEK cells
T1 sequence (Q96FL8 1-570): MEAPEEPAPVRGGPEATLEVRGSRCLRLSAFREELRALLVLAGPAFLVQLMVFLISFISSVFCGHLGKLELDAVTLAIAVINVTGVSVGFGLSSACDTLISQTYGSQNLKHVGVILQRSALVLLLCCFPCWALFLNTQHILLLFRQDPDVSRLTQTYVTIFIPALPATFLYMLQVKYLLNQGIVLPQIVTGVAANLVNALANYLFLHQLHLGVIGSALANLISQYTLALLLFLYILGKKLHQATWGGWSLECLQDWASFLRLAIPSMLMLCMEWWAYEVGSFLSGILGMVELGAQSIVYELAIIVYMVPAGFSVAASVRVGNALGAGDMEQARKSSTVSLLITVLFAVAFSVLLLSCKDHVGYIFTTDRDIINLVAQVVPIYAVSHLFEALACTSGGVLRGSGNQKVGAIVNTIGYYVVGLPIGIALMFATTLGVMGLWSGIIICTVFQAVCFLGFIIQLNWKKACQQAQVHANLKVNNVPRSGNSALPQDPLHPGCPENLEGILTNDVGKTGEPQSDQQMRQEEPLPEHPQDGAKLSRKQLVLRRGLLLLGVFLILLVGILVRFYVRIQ

MATE2K = MATE2K (Homo sapiens, UniProt Q86VL8); assay: MATE2K inhibitor (IC50) assessment, metformin uptake in transfected HEK cells
human hepatocytes = assay: Cell viability after CYP induction treatment (MTS); conditions: controls: 50 μM OME, 1,000 μM phenobarbital, 50 μM RIF, 10 μM flumazenil, 72 h
Procedure: Plateable and inducible cryopreserved human hepatocytes were thawed and isolated in human hepatocyte thawing medium. […] After attachment (4 hours), the medium was changed to fresh hepatocyte culture medium for overnight cell recovery. […] A positive control (100 μM chlorpromazine) was treated in parallel. […] The absorbance of formazan, which is proportional to the number of viable cells, was measured spectrophotometrically using the CellTiter 96® AQueous One Solution Cell Proliferation Assay (MTS).
After the CYP induction treatment, the cells were used for cell viability assay. The viability of cells (expressed as the percentage of MTS absorbance relative to vehicle control) was measured as described herein.

CYP2B6 mRNA = assay: Induction of CYP2B6 mRNA in human hepatocytes (qPCR); conditions: controls: 1,000 μM phenobarbital, 10 μM flumazenil, 72 h
Procedure: Plateable and inducible cryopreserved human hepatocytes were thawed and isolated in human hepatocyte thawing medium.
All experiments were performed in triplicate.
After induction treatment, CYP mRNA expression was measured by qPCR. Total RNA was isolated from the treated cells using the RNeasy® mini kit (Qiagen, Valencia, Calif., USA) and treated with RNase-free DNase (Qiagen) following the manufacturer's protocols. The concentration of RNA was determined using a Qubit® Fluorometer with a Qubit RNA HS assay kit (Invitrogen). cDNA was synthesized from up to 1 μg of the total RNA harvested from the cells using a QuantiTect® RT kit (Qiagen). Analysis of CYP gene expression by qPCR (Table 3) was performed using the LightCycler® 480 II System (Roche Diagnostics Corporation, Indianapolis, Ind., USA).
Relative mRNA was expressed as the fold-increase calculated from the normalized mRNA level (2^−ΔΔCt) relative to vehicle control. The percentage of mRNA fold-increase relative to positive control was calculated using the following equation:
% Induction relative to positive control=100×(mRNATA−mRNAvehicle)/(mRNApositive control−mRNAvehicle)

[1] = CYP reaction phenotyping: CYP control (negative control without CYP enzymes); conditions: 20 min, pH 7.4
Procedure: The reaction was initiated by the addition of NADPH, followed by incubation at 37° C.

P-gp and BCRP = P-gp and BCRP substrate assessment, bidirectional permeability in C2BBe1 cells; conditions: C2BBe1 cells, 10 μM probe; for recovery at 10 μM / Papp A→B at 10 µM / Papp B→A at 10 µM: human; for Papp A→B at 10 µM / Papp B→A at 10 µM: Caco-2, pH 7.4, probe digoxin (P-gp), cladribine (BCRP); for Papp A→B at 10 µM: AP-to-BL Papp; for Papp B→A at 10 µM: BL-to-AP Papp
Procedure: The P-gp and BCRP substrate assessment was conducted in C2BBe1 cell monolayers. […] LY was co-dosed with each dosing solution at a nominal concentration of 200 μM.
The cell culture medium was aspirated, and the cell monolayers were rinsed once with HBSSg_7.4. […] For receiver samples, aliquots (300 μL) were taken at pre-selected time points. […] For donor samples, aliquots (50 μL) were taken at pre-selected time points without replacement.

OCT2 = molecular target: T2, OCT2 (Homo sapiens, UniProt O15244); assay: OCT2 inhibitor (IC50) assessment, MPP+ uptake in transfected HEK cells
T2 sequence (O15244 1-555): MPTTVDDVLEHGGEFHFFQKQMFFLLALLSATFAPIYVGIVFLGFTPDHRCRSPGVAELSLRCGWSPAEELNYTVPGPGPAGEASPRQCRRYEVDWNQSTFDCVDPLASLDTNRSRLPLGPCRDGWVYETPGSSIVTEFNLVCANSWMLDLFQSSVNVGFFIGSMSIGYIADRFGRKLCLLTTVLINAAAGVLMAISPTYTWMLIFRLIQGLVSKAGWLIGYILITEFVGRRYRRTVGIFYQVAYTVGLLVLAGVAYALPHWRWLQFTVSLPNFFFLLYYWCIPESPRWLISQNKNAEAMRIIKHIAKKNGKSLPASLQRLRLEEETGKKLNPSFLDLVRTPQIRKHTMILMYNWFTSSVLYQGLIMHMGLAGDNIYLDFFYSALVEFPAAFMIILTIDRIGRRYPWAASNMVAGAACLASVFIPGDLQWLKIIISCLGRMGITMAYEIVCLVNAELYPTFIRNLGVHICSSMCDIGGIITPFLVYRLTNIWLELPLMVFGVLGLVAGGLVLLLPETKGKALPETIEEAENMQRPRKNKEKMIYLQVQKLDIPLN

[2] = 50 μM Metformin alone, 10 min, HBSSg_8.5, replicates and Average
[3] = absence of TUDCA and PB or positive inhibitor
[4] = 50 μM Metformin alone, 10 min, HBSSg_8.5, replicates 1, 2 and Average
[5] = batch used with Sol_1, Sol_3, and Sol_4, single replicates
[6] = batch used with Sol_2, single replicates
[7] = 5 μM MPP+ alone, 2 min, replicates 1, 2 and Average

MATE2K, sequence (Q86VL8 1-566 isoform Q86VL8-3): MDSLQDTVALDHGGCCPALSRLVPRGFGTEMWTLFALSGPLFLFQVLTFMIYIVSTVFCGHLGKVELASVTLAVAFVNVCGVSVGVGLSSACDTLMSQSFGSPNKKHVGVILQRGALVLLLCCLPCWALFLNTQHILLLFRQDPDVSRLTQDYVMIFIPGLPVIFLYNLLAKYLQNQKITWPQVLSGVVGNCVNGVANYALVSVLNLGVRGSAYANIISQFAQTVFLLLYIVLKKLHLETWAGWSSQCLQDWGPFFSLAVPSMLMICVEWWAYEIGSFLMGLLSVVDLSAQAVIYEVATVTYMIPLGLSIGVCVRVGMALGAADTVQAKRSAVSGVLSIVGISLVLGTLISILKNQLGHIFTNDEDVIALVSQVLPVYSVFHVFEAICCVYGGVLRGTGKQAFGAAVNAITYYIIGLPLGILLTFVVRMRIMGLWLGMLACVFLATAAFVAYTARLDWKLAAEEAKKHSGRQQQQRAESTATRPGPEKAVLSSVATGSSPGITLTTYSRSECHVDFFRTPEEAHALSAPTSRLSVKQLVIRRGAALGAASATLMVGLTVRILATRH

## CN(C)C(=N)N=C(N)N [metformin]
MATE1; 50 μM Metformin alone
  Net Influx Rate of Metformin (MATE1): 572 pmol/mg protein/minute
  influx rate ratio of metformin (MATE1 over vector control): 43.4
MATE1; [2]
  Influx Rate of Metformin, MATE1-HEK Cells: 515 pmol/mg protein/minute and 656 pmol/mg protein/minute
  Influx Rate of Metformin, Vector Control Cells: 15.6 pmol/mg protein/minute and 11.3 pmol/mg protein/minute
MATE1; [3]
  influx rate ratio of metformin (MATE1 over vector control): 43.4
MATE2K; 50 μM Metformin alone
  Net Influx Rate of Metformin (MATE2K): 36.1 pmol/mg protein/minute
  influx rate ratio of metformin (MATE2K over vector control): 2.70
MATE2K; [4]
  Influx Rate of Metformin, MATE2K HEK Cells: 54.5 pmol/mg protein/minute and 60.2 pmol/mg protein/minute
  Influx Rate of Metformin, Vector Control Cells: 19.6 pmol/mg protein/minute and 22.8 pmol/mg protein/minute
MATE2K; [3]
  influx rate ratio of metformin (MATE2K over vector control): 2.70

## CCC1(c2ccccc2)C(=O)NC(=O)NC1=O [Phenobarbital, phenobarbital]
Human hepatocytes; donor 1
  % MTS Absorbance Relative to Vehicle Control: 97.7%
  Formazan Absorbance (n = 6) Mean: 0.417
Human hepatocytes; donor 2
  % MTS Absorbance Relative to Vehicle Control: 98.8%
  Formazan Absorbance (n = 6) Mean: 0.504
Human hepatocytes; donor 3
  % MTS Absorbance Relative to Vehicle Control: 108%
  Formazan Absorbance (n = 6) Mean: 0.320
CYP2B6 mRNA; donor 1
  CYP2B6 mRNA % Induction Relative to Positive Control: 100%
  CYP2B6 mRNA Fold-increase (n = 3) Mean: 21.8 fold
CYP2B6 mRNA; donor 2
  CYP2B6 mRNA % Induction Relative to Positive Control: 100%
  CYP2B6 mRNA Fold-increase (n = 3) Mean: 39.6 fold
CYP2B6 mRNA; donor 3
  CYP2B6 mRNA % Induction Relative to Positive Control: 100%
  CYP2B6 mRNA Fold-increase (n = 3) Mean: 7.36 fold

## CCN(CC)Cc1cc(Nc2ccnc3cc(Cl)ccc23)ccc1O [Amodiaquine]
[1]
  Measured Metabolite: 0 µM

## C[C@H]1O[C@@H](O[C@H]2[C@@H](O)C[C@H](O[C@H]3[C@@H](O)C[C@H](O[C@H]4CC[C@@]5(C)[C@H](CC[C@@H]6[C@@H]5C[C@@H](O)[C@]5(C)[C@@H](C7=CC(=O)OC7)CC[C@]65O)C4)O[C@@H]3C)O[C@@H]2C)C[C@H](O)[C@@H]1O [digoxin]
P-gp and BCRP; [5]
  AP-to-BL Papp: 0.350 10^−6 cm/s and 0.234 10^−6 cm/s
  AP-to-BL Recovery: 95.3%
  BL-to-AP Papp: 14.6 10^−6 cm/s and 11.2 10^−6 cm/s
  BL-to-AP Recovery: 94.9% and 83.1%
  Papp A→B at 10 µM: 0.326 ×10⁻⁶ cm/s
  Papp B→A at 10 µM: 12.1 ×10⁻⁶ cm/s
P-gp and BCRP; [6]
  AP-to-BL Papp: 0.381 10^−6 cm/s and 0.298 10^−6 cm/s
  AP-to-BL Recovery: 92.4%
  BL-to-AP Papp: 12.1 10^−6 cm/s and 12.8 10^−6 cm/s
  BL-to-AP Recovery: 96.7% and 90.2%
  Papp A→B at 10 µM: 0.323 ×10⁻⁶ cm/s
  Papp B→A at 10 µM: 13.5 ×10⁻⁶ cm/s
P-gp and BCRP; Caco-2, pH 7.4, AP-to-BL Recovery, batch used with Sol_1, Sol_3, and Sol_4, Average
  recovery at 10 μM: 89.5%
P-gp and BCRP; Caco-2, pH 7.4, AP-to-BL Recovery, batch used with Sol_1, Sol_3, and Sol_4, single replicates
  recovery at 10 μM: 90.9%
P-gp and BCRP; Caco-2, pH 7.4, AP-to-BL Recovery, batch used with Sol_2, Average
  recovery at 10 μM: 86.3%
P-gp and BCRP; Caco-2, pH 7.4, AP-to-BL Recovery, batch used with Sol_2, single replicates
  recovery at 10 μM: 77.9%
P-gp and BCRP; Caco-2, pH 7.4, BL-to-AP Recovery, batch used with Sol_1, Sol_3, and Sol_4, Average
  recovery at 10 μM: 87.4%
P-gp and BCRP; Caco-2, pH 7.4, BL-to-AP Recovery, batch used with Sol_1, Sol_3, and Sol_4, single replicates
  recovery at 10 μM: 84.1%
P-gp and BCRP; Caco-2, pH 7.4, BL-to-AP Recovery, batch used with Sol_2, Average
  recovery at 10 μM: 92.1%
P-gp and BCRP; Caco-2, pH 7.4, BL-to-AP Recovery, batch used with Sol_2, single replicates
  recovery at 10 μM: 89.5%
P-gp and BCRP; batch used with Sol_2, Average
  Papp A→B at 10 µM: 0.334 ×10⁻⁶ cm/s
  Papp B→A at 10 µM: 12.8 ×10⁻⁶ cm/s
P-gp and BCRP; batch used with Sol_1, Sol_3, and Sol_4, Average
  Papp B→A at 10 µM: 12.6 ×10⁻⁶ cm/s

## CN/C(=N/CCSCc1nc[nH]c1C)NC#N [cimetidine]
MATE1; 50 μM Metformin + 100 μM Cimetidine
  Percentage Inhibition of MATE1: 99.2%
MATE1; known inhibitor
  inhibition of metformin uptake in MATE1-transfected cells: 99.2%

## C[n+]1ccc(-c2ccccc2)cc1 [MPP+, 1-methyl-4-phenylpyridinium]
OCT2; 5 μM MPP+ alone
  Net Influx Rate of MPP+ (OCT2): 847 pmol/mg protein/minute
OCT2; 5 μM MPP+ alone, 2 min
  influx rate ratio of MPP+ (OCT2 over vector control): 48.9
OCT2; [7]
  Influx Rate of MPP+, OCT2-HEK Cells: 896 pmol/mg protein/minute and 833 pmol/mg protein/minute
  Influx Rate of MPP+, Vector Control Cells: 19.0 pmol/mg protein/minute and 16.3 pmol/mg protein/minute
OCT2; absence of TUDCA and PB or imipramine
  influx rate ratio of MPP+ (OCT2 over vector control): 48.9
